The test deals with Acinetobacter baumannii ATCC 17978. Put plainly: Antimicrobial susceptibility testing: 90% growth inhibitory concentration (IC90) determination. The conditions noted are these: 90% growth inhibitory concentration, Acinetobacter baumannii ATCC17978, Iso-Sensitest broth, OD 600 nm over 16h, read-out: ATCC17978 IC90. In kind it is cell-based. The method, boiled down:
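Compounds serially twofold diluted (e.g. 50 to 0.097 μM final) in Iso-Sensitest broth, inoculated at ~5×10^(5) CFU/ml, incubated at 35±2° C. OD600 read every 20 minutes over 16h. IC90 taken as concentration inhibiting 90% of growth during logarithmic phase.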

[1] abbreviates: Acinetobacter baumannii, ATCC17978, 16 h.

SMILES strings stand for the structures. Counter-ions that a name gives are not always drawn. Like-named read-outs stand apart in the source and are kept apart here.

By IC90 is commonly meant the concentration at which the effect reaches the 90% level. Take `CNC(=O)c1ccc(Nc2nccn3c(-c4ccc(OC(F)F)cc4)cnc23)cc1Br` [Example 93, 2-bromo-4-((3-(4-(difluoromethoxy)phenyl)imidazo[1,2-a]pyrazin-8-yl)amino)-N-methylbenzamide]: the concentration for an effect of 90% (IC90) under setting [1] was 200 nM.
The same measure, in the same setting: the figure for `COc1ccc(-c2cnc3c(Nc4ccc(C(=O)NCC5CCNC5)c(C)c4)nccn23)c(F)c1F` (stereo not shown) [Example 57, 4-[[3-(2,3-difluoro-4-methoxy-phenyl)imidazo[1,2-a]pyrazin-8-yl]amino]-2-methyl-N-(pyrrolidin-3-ylmethyl)benzamide] is 290 nM; for `COc1ccc(-c2cnc3c(Nc4ccc(C(=O)N[C@@H](C)CNC(C)=N)c(Cl)c4)nccn23)c(F)c1F` [Example 487, 2-chloro-4-[[3-(2,3-difluoro-4-methoxyphenyl)imidazo[1,2-a]pyrazin-8-yl]amino]-#N!- [(2#S!)-1-(ethanimidoylamino)propan-2-yl]benzamide;formic acid] it is 120 nM.
On the same count and under the same terms, the figure for `N#CCOc1ccc(-c2cnc3c(Nc4ccc(C(=O)NCc5cc[nH]c(=O)c5)c(Cl)c4)nccn23)c(F)c1F` [Example 85, 2-chloro-4-[[3-[4-(cyanomethoxy)-2,3-difluoro-phenyl]imidazo[1,2-a]pyrazin-8-yl]amino]-N-[(2-oxo-1H-pyridin-4-yl)methyl]benzamide] is 70 nM.
Still for that read-out and setting: the figure for `CCc1cc(Nc2nccn3c(-c4ccc(OC(F)F)c(F)c4F)cnc23)ccc1C(=O)NC(C)(C)CCN` [Example 100, N-(4-amino-2-methylbutan-2-yl)-4-((3-(4-(difluoromethoxy)-2,3-difluorophenyl)imidazo [1,2-a]pyrazin-8-yl)amino)-2-ethylbenzamide hydrochloride] is 350 nM.
In the case of `COc1ccc(-c2cnc3c(Nc4ccc(C(=O)N(C)CC5CNC5)c(C)c4)nccn23)cc1F` [Example 384, N-(azetidin-3-ylmethyl)-4-[[3-(3-fluoro-4-methoxyphenyl)imidazo[1,2-a]pyrazin-8-yl]amino]-N,2-dimethylbenzamide], the concentration for an effect of 90% (IC90) came out at 880 nM.
For `COc1ccc(-c2cnc3c(Nc4ccc(C(=O)NCC5CCCOC5)c(C)c4)nccn23)cc1F` (stereo not shown) [Example 72, 4-((3-(3-fluoro-4-methoxyphenyl)imidazo [1,2-a]pyrazin-8-yl)amino)-2-methyl-N-((tetrahydro-2H-pyran-3-yl)methyl)benzamide], the IC90 under setting [1] is 1000 nM.
As to `COc1ccc(-c2cnc3c(Nc4ccc(C(=O)N(C)CCN5CCCCC5)c(C)c4)nccn23)cc1F` [Example 267, 4-[[3-(3-fluoro-4-methoxyphenyl)imidazo[1,2-a]pyrazin-8-yl]amino]-N,2-dimethyl-N-(2-piperidin-1-ylethyl)benzamide], under setting [1], the 90% effect concentration (IC90) is 5400 nM.
Regarding `CN(C)C(=O)c1ccc(Nc2nccn3c(-c4ccc(OC(F)F)cc4)cnc23)cc1CO` [Example 259, 4-[[3-[4-(difluoromethoxy)phenyl]im-idazo[1,2-a]pyrazin-8-yl]amino]-2-(hydroxymethyl)-N,N-dimethylbenzamide], under setting [1], the 90% effect concentration (IC90) is 4100 nM.
Same read-out and setting: the figure for `COc1ccc(-c2cnc3c(Nc4ccc(C(=O)N(CCN5CCNCC5)CC(F)F)c(C)c4)nccn23)cc1F` [Example 175, N-(2,2-difluoroethyl)-4-[[3-(3-fluoro-4-methoxyphenyl)imidazo[1,2-a]pyrazin-8-yl]amino]-2-methyl-N-(2-piperazin-1-ylethyl)benzamide;hydrochlo-ride] is 2300 nM; for `CCc1cc(Nc2nccn3c(-c4ccc(OC(F)F)c(F)c4F)cnc23)ccc1C(=O)NCCCCCN` [Example 96, N-(5-aminopentyl)-4-((3-(4-(difluoromethoxy)-2,3-difluorophenyl)imidazo [1,2-a]pyrazin-8-yl)amino)-2-ethylbenzamide hydrochloride] it is 70 nM; for `CNC(=O)c1ccc(Nc2nccn3c(-c4ccc(OC)c(Cl)c4)cnc23)cc1C` [Example 27, 4-((3-(3-chloro-4-methoxyphenyl)imidazo [1,2-a]pyrazin-8-yl)amino)-N,2-dimethylbenzamide] it is 190 nM.
In the case of `Cc1cc(Nc2nccn3c(-c4ccc(OC(F)F)cc4)cnc23)ccc1C(=O)NCC1CNCCO1` (stereo not shown) [Example 242, 4-[[3-[4-(difluoromethoxy)phenyl]im-idazo[1,2-a]pyrazin-8-yl]amino]-2-methyl-N-(morpholin-2-ylmethyl)benzamide; hydrochlo-ride], the concentration for an effect of 90% (IC90) under setting [1] came out at 2000 nM.
Regarding `N#CCOc1ccc(-c2cnc3c(Nc4ccc(C(=O)NCCCN5CCNCC5)c(Cl)c4)nccn23)c(F)c1F` [Example 77, 2-chloro-4-((3-(4-(cyanomethoxy)-2,3-difluorophenyl)imidazo [1,2-a]pyrazin-8-yl)amino)-N-(3-(piperazin-1-yl)propyl)benzamide], the IC90 under setting [1] was 100 nM.
Same read-out and setting: the figure for `COc1ccc(-c2cnc3c(Nc4ccc(C(=O)N(C)CCC(=O)N5CCNCC5)c(C)c4)nccn23)cc1F` [Example 3, 4-[[3-(3-fluoro-4-methoxy-phenyl)imidazo[1,2-a]pyrazin-8-yl]amino]-N,2-dimethyl-N-(3-oxo-3-piperazin-1-yl-propyl)benzamide] is 210 nM.
On the same count and under the same terms, the figure for `CCc1cc(Nc2nccn3c(-c4ccc(Oc5cnn[nH]5)c(F)c4F)cnc23)ccc1C(=O)NCC1CCN(CC2CCNC2)CC1` (stereo not shown) [Example 557, 4-[[3-[2,3-difluoro-4-(1#H!- triazol-5-yloxy)phenyl]imidazo[1,2-a]pyrazin-8-yl]amino]-2-ethyl-#N!-[[1-(pyrrolidin-3-ylmethyl)piperidin-4-yl]methyl]benzamide;formic acid] is 480 nM.
The same measure, in the same setting: the figure for `CCc1cc(Nc2nccn3c(-c4ccc(OC(F)F)c(F)c4F)cnc23)ccc1C(=O)N[C@@H](C)CNC(=O)C1CCNCC1` (racemic) [Example 552, rac-(R)-N-(2-(4-((3-(4-(difluoromethoxy)-2,3-difluorophenyl)imidazo[1,2-a]pyrazin-8-yl)amino)-2-ethylbenzamido)propyl)piper-idine-4-carboxamide formate] is 210 nM; for `COc1ccc(-c2cnc3c(Nc4ccc(C(=O)N[C@H](C)CNC(=N)C(C)C)c(C)c4)nccn23)c(F)c1F` [Example 498, 4-[[3-(2,3-difluoro-4-methoxyphenyl)imidazo[1,2-a]pyrazin-8-yl]amino]-2-methyl-#N!-[(2#R!)-1-(2-methylpropanimidoylamino)propan-2-yl]benzamide] it is 140 nM; for `CCc1cc(Nc2nccn3c(-c4ccc(OC(F)F)c(F)c4F)cnc23)ccc1C(=O)NCCCCN` [Example 94, N-(4-aminobutyl)-4-((3-(4-(difluoromethoxy)-2,3-difluorophenyl)imidazo [1,2-a]pyrazin-8-yl)amino)-2-ethylbenzamide hydrochloride] it is 280 nM.
`CCc1cc(Nc2nccn3c(-c4ccc(OC)c(F)c4F)cnc23)ccc1C(=O)NCC(O)CNC(=O)CC(O)CN` (stereo not shown) [Example 411, N-(3-(4-amino-3-hydroxybutanamido)-2-hydroxypropyl)-4-((3-(2,3-difluoro-4-methoxyphenyl)imidazo[1,2-a]pyrazin-8-yl)amino)-2-ethylbenzamide hydrochloride]: the IC90 under setting [1] was 320 nM.
Regarding `Cc1cc(Nc2nccn3c(-c4ccc(OC(F)F)cc4)cnc23)ccc1C(=O)N(C)CCC1CCNCC1` [Example 81, 4-((3-(4-(difluoromethoxy)phenyl)imidazo[1,2-a]pyrazin-8-yl)amino)-N,2-dimethyl-N-(2-(piperidin-4-yl)ethyl)benzamide], the IC90 worked out at 200 nM.
`CCc1cc(Nc2nccn3c(-c4ccc(OC(F)F)c(F)c4F)cnc23)ccc1C(=O)NCCCNC(=O)CN(C)C` [Example 324, 4-[[3-[4-(difluoromethoxy)-2,3-difluorophenyl]imidazo[1,2-a]pyrazin-8-yl]amino]-N-[3-[[2-(dimethylamino)acetyl]amino]propyl]-2-ethylbenzamide]: the IC90 under setting [1] was 110 nM.
Still for that read-out and setting: the figure for `COc1ccc(-c2cnc3c(Nc4ccc(C(=O)NCCN5CCNCC5)c(Cl)c4)nccn23)cc1F` [Example 188, 2-chloro-4-[[3-(3-fluoro-4-methoxyphenyl)imidazo[1,2-a]pyrazin-8-yl]amino]-N-(2-piperazin-1-ylethyl)benzamide;hydrochlo-ride] is 270 nM.
Take `CCc1cc(Nc2nccn3c(-c4ccc(OC(F)F)c(F)c4F)cnc23)ccc1C(=O)N[C@@H](C)CN` [Example 312, N-[(2S)-1-aminopropan-2-yl]-4-[[3-[4-(difluoromethoxy)-2,3-difluorophenyl]imidazo[1,2-a]pyrazin-8-yl]amino]-2-ethylbenzamide; hydrochloride]: the IC90 was found to be 1200 nM.
In the case of `CNC(=O)c1ccc(Nc2nccn3c(-c4ccc(OC(F)F)cc4)cnc23)cc1Cl` [Example 110, 2-chloro-4-((3-(4-(difluoromethoxy)phenyl)imidazo[1,2-a]pyrazin-8-yl)amino)-N-methylbenzamide], the concentration for an effect of 90% (IC90) under setting [1] stood at 250 nM.
Same read-out and setting: the figure for `Cc1cc(Nc2nccn3c(-c4ccc(OCC#CCN)cc4)cnc23)ccc1C(=O)N(C)CCC1CCN(C)CC1` [Example 319, 4-[[3-[4-(4-aminobut-2-ynoxy)phenyl]imidazo[1,2-a]pyrazin-8-yl]amino]-N,2-dimethyl-N-[2-(1-methylpiperidin-4-yl)ethyl]benzamide;formic acid] is 3300 nM; for `Cc1cc(Nc2nccn3c(-c4ccc(OC(F)F)cc4)cnc23)ccc1C(=O)N(C)CCCN1CCNCC1` [Example 219, 4-[[3-[4-(difluoromethoxy)phenyl]im-idazo[1,2-a]pyrazin-8-yl]amino]-N,2-dimethyl-N-(3-piperazin-1-ylpropyl)benzamide;hydrochlo-ride] it is 1000 nM; for `COc1ccc(-c2cnc3c(Nc4ccc(C(=O)N(C)CCCN5CCNCC5)c(C)c4)nccn23)cc1F` [Example 275, 4-[[3-(3-fluoro-4-methoxyphenyl)imidazo[1,2-a]pyrazin-8-yl]amino]-N,2-dimethyl-N-(3-piperazin-1-ylpropyl)benzamide] it is 350 nM.

(Values after US20230012368A1 (Hoffmann-La Roche Inc., priority 2018, published 2023).)
